Measurements as given in patent US7553864B2, “Compounds for the treatment of inflammatory disorders and microbial diseases” (Schering Corporation, priority 2005, dated 2009).

target: T1, ADMP (ADAMTS-4-5) (Homo sapiens, UniProt O75173); test: ADMP activity assay (procedures of WO00/05256); assay type: biochemical; conditions: not given
T1 construct: purchased Calbiochem PF113
T1 sequence (O75173 213-837): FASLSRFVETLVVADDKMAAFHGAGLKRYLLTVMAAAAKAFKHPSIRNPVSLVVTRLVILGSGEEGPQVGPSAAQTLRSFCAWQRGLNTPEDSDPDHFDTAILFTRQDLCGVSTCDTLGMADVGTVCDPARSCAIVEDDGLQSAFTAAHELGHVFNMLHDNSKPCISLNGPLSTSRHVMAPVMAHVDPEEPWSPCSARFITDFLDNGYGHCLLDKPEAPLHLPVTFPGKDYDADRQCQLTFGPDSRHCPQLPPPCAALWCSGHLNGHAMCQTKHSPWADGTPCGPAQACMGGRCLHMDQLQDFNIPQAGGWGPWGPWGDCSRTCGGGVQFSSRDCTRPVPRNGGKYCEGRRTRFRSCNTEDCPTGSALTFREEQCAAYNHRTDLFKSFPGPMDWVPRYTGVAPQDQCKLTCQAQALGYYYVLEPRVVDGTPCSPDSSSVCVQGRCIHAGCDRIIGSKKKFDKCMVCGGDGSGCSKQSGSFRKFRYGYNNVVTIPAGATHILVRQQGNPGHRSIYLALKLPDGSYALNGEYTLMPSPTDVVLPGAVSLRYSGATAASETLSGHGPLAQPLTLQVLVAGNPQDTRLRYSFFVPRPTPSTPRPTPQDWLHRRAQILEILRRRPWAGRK
Description: The procedures of International Patent Publication WO00/05256 (published Feb. 3, 2000) were followed for detection of ADMP Activity and for measuring the IC50 of the compounds of the present invention. This was indicative of activity against a desintgrin and metallopropeinase thrombo spondin 4 and 5 (ADAMTS-4-5).
The enzyme was purchased commercially from Calbiochem (Cat# PF113) and the peptide substrate described in the patent was custom-ordered from AnaSpec.

SMILES | IC50
COc1ccc(CNC(=O)[C@H](O)[C@@H](O)C(=O)N2CCC(C(C)=O)(c3ccccc3)CC2)cc1 [Compound 108] | 250 to 1000 nM

same assay, conditions: read-out: IC50 (ADMP inhibition)

SMILES | IC50
COc1ccc(N2CCN(C(=O)[C@H](O)[C@@H](O)C(=O)N[C@@H](C)c3ccc(Br)cc3)CC2)cc1 [Compound 130] | 170 nM

same assay, conditions: read-out: IC50 rating (ADMP inhibitory activity)

SMILES | IC50
C[C@H](NC(=O)C(O)C(O)C(=O)N1CCc2ccccc2C1)c1ccc(I)cc1 (stereo in doubt) [Compound 210] | 250 to 1000 nM
CN(Cc1ccccc1)C(=O)[C@H](O)[C@@H](O)C(=O)NCc1ccc(Cl)cc1 [Compound 110] | 250 to 1000 nM
O=C(NCc1ccc(C(F)(F)F)cc1)[C@H](O)[C@@H](O)C(=O)N1CCN(c2cccc(Cl)c2)CC1 [Compound 111] | 250 to 1000 nM
CN(CCc1ccccn1)C(=O)[C@H](O)[C@@H](O)C(=O)NCc1ccc(Cl)cc1 [Compound 113] | 250 to 1000 nM
C[C@H](NC(=O)[C@H](O)[C@@H](O)C(=O)N1CCc2ccccc2C1)c1ccc(Br)cc1 [Compound 114] | < 250 nM
CC(=O)c1ccc(N2CCN(C(=O)[C@H](O)[C@@H](O)C(=O)NCc3ccc(Cl)cc3)CC2)cc1 [Compound 118] | > 5000 nM
C[C@H](NC(=O)[C@H](O)[C@@H](O)C(=O)N(C)C1CCN(C)CC1)c1ccc(Br)cc1 [Compound 121] | 1000 to 5000 nM
CN1CCC(N(C)C(=O)[C@H](O)[C@@H](O)C(=O)NCc2ccc(C(F)(F)F)cc2)CC1 [Compound 122] | 250 to 1000 nM
N[C@@H]1CCN(C(=O)[C@H](O)[C@@H](O)C(=O)NCc2ccc(C(F)(F)F)cc2)C1 [Compound 123] | 1000 to 5000 nM
COc1ccc(N2CCN(C(=O)[C@H](O)[C@@H](O)C(=O)N[C@@H](C)c3ccc(Br)cc3)CC2)cc1 [Compound 130] | < 250 nM
